Biological target: T1, Recombinant human mPGES-1 (Homo sapiens, UniProt O14684)
T1 construct: made in house; host or cells: CHO cells (crude microsomal fractions)
T1 sequence (O14684 1-152): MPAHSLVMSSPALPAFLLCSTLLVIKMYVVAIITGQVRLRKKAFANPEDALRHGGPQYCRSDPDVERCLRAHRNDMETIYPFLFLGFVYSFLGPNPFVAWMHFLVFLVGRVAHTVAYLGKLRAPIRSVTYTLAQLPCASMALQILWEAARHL
Experiment: In-vitro screening of mPGES-1 inhibitors (inhibition of PGE2 formation from PGH2, HTRF detection)
Type: biochemical
Settings: mPGES-1 enzyme; for inhibition at 1 µM: 1 μM test compound, read-out: Percentage inhibition at 1 μM; for inhibition at 1 µM / inhibition at 10 µM: crude microsomal fractions; for inhibition at 10 µM: 10 μM test compound, read-out: Percentage inhibition at 10 μM; for IC50: class symbols
Description: In-Vitro Protocol for Screening of mPGES-1 Inhibitors: mPGES-1 (Microsomal prostaglandin E synthase-1) is a microsomal enzyme that converts endoperoxide substrate PGH2 (prostaglandin H2) to product PGE2 (prostaglandin E2) by isomerization in the presence of reduced glutathione (GSH). mPGES-1 inhibitors were screened by assessing their ability to inhibit formation of PGE2 from PGH2 in the presence of mPGES-1 using an anti-PGE2 antibody based detection method. Recombinant human mPGES-1 was generated in-house by expression in CHO cells (Ouellet M et al. (2002), Protein Expression and Purification 26: 489-495). The assay was set up using crude microsomal fractions at a protein concentration of 40-60 μg/mL. Test compounds were prepared in 100% dimethyl sulfoxide (DMSO) to obtain 20 mM stock solution and then diluted using assay buffer comprising 0.1 M Potassium phosphate buffer with 2 mM EDTA. The final concentration of DMSO in the reaction was 0.5% (v/v). Negative controls were comprised of all assay reagents except the enzyme. Positive controls were comprised of the enzyme reaction in the absence of any inhibitor. Test compounds were incubated for 10 minutes in assay buffer containing 2.5 mM GSH and mPGES-1 enzyme followed by addition of PGH2 at a concentration of 15 μM for 1 minute. The reaction was stopped by addition of Stannous chloride (11 mg/ml) and PGE2 levels were measured ([…] et al. (2005), Journal of Biomolecular Screening 10(6) 599-605; Goedken R E et al. (2008), Journal of Biomolecular Screening 13 (7): 619-625) by HTRF kit (CisBio)). Inhibition of mPGES-1 enzyme activity was measured using the percent of reaction occurring in the positive control. Concentration response curves were plotted using percent inhibition of maximum enzyme reaction. The IC50 value was calculated from the concentration response curve by nonlinear regression analysis using GraphPad PRISM software.

| Compound | inhibition at 1 µM | inhibition at 10 µM | IC50 |
| --- | --- | --- | --- |
| COc1cc(-n2nc(-c3c(F)cccc3Cl)[nH]c2=O)ccc1C(=O)NC1(c2ccccc2C(F)(F)F)CC1 [Example-26, 4-(3-(2-Chloro-6-fluorophenyl)-5-oxo-4,5-dihydro-1H-1,2,4-triazol-1-yl)-2-methoxy-N-(1-(2-(trifluoromethyl)phenyl)cyclopropyl)benzamide] | 80.6% | 88.1% | > 100 nM |
| COc1cc(-n2nc(-c3c(F)cccc3Cl)[nH]c2=O)ccc1C(=O)NC1(c2ccc(C(F)(F)F)cc2)CC1 [Example-27, 4-(3-(2-Chloro-6-fluorophenyl)-5-oxo-4,5-dihydro-1H-1,2,4-triazol-1-yl)-2-methoxy-N-(1-(4-(trifluoromethyl)phenyl)cyclopropyl)benzamide] | 72.8% | 97.5% | – |
| O=C(NCc1ccc(F)cc1C(F)(F)F)c1ccc(-n2nc(-c3c(F)cccc3Cl)[nH]c2=O)cc1 [Example-28, 4-(3-(2-Chloro-6-fluorophenyl)-5-oxo-4,5-dihydro-1H-1,2,4-triazol-1-yl)-N-(4-fluoro-2-(trifluoromethyl)benzyl)benzamide] | 72.2% | 95.5% | – |
| O=C(Nc1ccc(C(F)(F)F)cc1)c1ccc(-n2nc(-c3c(F)cccc3Cl)[nH]c2=O)cc1 [Example-29, 4-(3-(2-Chloro-6-fluorophenyl)-5-oxo-4,5-dihydro-1H-1,2,4-triazol-1-yl)-N-(4-(trifluoromethyl)phenyl)benzamide] | 79.2% | 85.8% | > 100 nM |
| O=C(Nc1cc(C(F)(F)F)ccc1F)c1ccc(-n2nc(-c3c(F)cccc3Cl)[nH]c2=O)cc1 [Example-34, 4-(3-(2-Chloro-6-fluorophenyl)-5-oxo-4,5-dihydro-1H-1,2,4-triazol-1-yl)-N-(2-fluoro-5-(trifluoromethyl)phenyl)benzamide] | 70.7% | 92.3% | – |

Now from value to compound:

| inhibition at 1 µM | inhibition at 10 µM | IC50 | Compound |
| --- | --- | --- | --- |
| 74.4% | 88.9% | > 100 nM | COc1cc(-n2nc(-c3c(F)cccc3Cl)[nH]c2=O)ccc1C(=O)NCc1ccccc1C(F)(F)F [Example-25, 4-[3-(2-Chloro-6-fluorophenyl)-5-oxo-4,5-dihydro-1H-1,2,4-triazol-1-yl]-2-methoxy-N-[2-(trifluoromethyl)benzyl]benzamide] |
| 89.6% | 94.5% | < 50 nM | O=c1[nH]c(-c2c(F)cccc2Cl)nn1-c1ccc(-c2nc(-c3ccc(F)cc3)no2)cc1 [Example-30, 3-(2-Chloro-6-fluorophenyl)-1-(4-(3-(4-fluorophenyl)-1,2,4-oxadiazol-5-yl)phenyl)-1H-1,2,4-triazol-5(4H)-one] |
| 96.9% | 98.6% | 50 to 100 nM | O=C(Nc1cccc(C(F)(F)F)c1)c1ccc(-n2nc(-c3c(F)cccc3Cl)[nH]c2=O)cc1 [Example-31, 4-(3-(2-Chloro-6-fluorophenyl)-5-oxo-4,5-dihydro-1H-1,2,4-triazol-1-yl)-N-(3-(trifluoromethyl)phenyl)benzamide] |
| 88.8% | 94% | 50 to 100 nM | O=C(Nc1ccc(F)c(C(F)(F)F)c1)c1ccc(-n2nc(-c3c(F)cccc3Cl)[nH]c2=O)cc1 [Example-32, 4-(3-(2-Chloro-6-fluorophenyl)-5-oxo-4,5-dihydro-1H-1,2,4-triazol-1-yl)-N-(4-fluoro-3-(trifluoromethyl)phenyl)benzamide] |
| 89.4% | 96.8% | < 50 nM | COc1cc(-n2nc(-c3c(F)cccc3Cl)[nH]c2=O)ccc1C(=O)Nc1ccc(F)c(C(F)(F)F)c1 [Example-33, 4-(3-(2-Chloro-6-fluorophenyl)-5-oxo-4,5-dihydro-1H-1,2,4-triazol-1-yl)-N-(4-fluoro-3-(trifluoromethyl)phenyl)-2-methoxybenzamide] |
